The NIST ThermoML archive (doi:10.1016/j.jct.2010.08.019)
± gives the expanded uncertainty stated by the source.

Test: refractive index (Na D-line) (dimensionless); xn = mol fraction of the nth substance listed
Conditions: 101 kPa, Liquid, Standard Abbe refractometry

C1CCOCC1 [tetrahydropyran] + CC(C)O
Conditions | refractive index
293.15 K, x2 = 0 | 1.39161 ± 0.00037
293.15 K, x2 = 0.0501 | 1.39085 ± 0.00037
293.15 K, x2 = 0.0999 | 1.3902 ± 0.00036
293.15 K, x2 = 0.1499 | 1.38954 ± 0.00036
293.15 K, x2 = 0.2003 | 1.38897 ± 0.00036
293.15 K, x2 = 0.2506 | 1.38839 ± 0.00036
293.15 K, x2 = 0.2999 | 1.38777 ± 0.00035
293.15 K, x2 = 0.35 | 1.38719 ± 0.00035
293.15 K, x2 = 0.3999 | 1.3866 ± 0.00035
293.15 K, x2 = 0.4499 | 1.38599 ± 0.00035
293.15 K, x2 = 0.5001 | 1.38539 ± 0.00035
293.15 K, x2 = 0.5502 | 1.38478 ± 0.00034
293.15 K, x2 = 0.6001 | 1.38415 ± 0.00034
293.15 K, x2 = 0.6499 | 1.38347 ± 0.00034
293.15 K, x2 = 0.7001 | 1.3827 ± 0.00034
293.15 K, x2 = 0.7499 | 1.38194 ± 0.00034
293.15 K, x2 = 0.8 | 1.38113 ± 0.00033
293.15 K, x2 = 0.8501 | 1.38021 ± 0.00033
293.15 K, x2 = 0.9001 | 1.37932 ± 0.00033
293.15 K, x2 = 0.9499 | 1.37832 ± 0.00033
303.15 K, x2 = 0 | 1.3866 ± 0.00037
303.15 K, x2 = 0.0502 | 1.38571 ± 0.00037
303.15 K, x2 = 0.1001 | 1.38505 ± 0.00036
303.15 K, x2 = 0.1501 | 1.38441 ± 0.00036
303.15 K, x2 = 0.1998 | 1.38377 ± 0.00036
303.15 K, x2 = 0.2499 | 1.3832 ± 0.00036
303.15 K, x2 = 0.3 | 1.38259 ± 0.00035
303.15 K, x2 = 0.3499 | 1.38201 ± 0.00035
303.15 K, x2 = 0.4001 | 1.38144 ± 0.00035
303.15 K, x2 = 0.4501 | 1.38087 ± 0.00035
303.15 K, x2 = 0.5001 | 1.38026 ± 0.00035
303.15 K, x2 = 0.55 | 1.37965 ± 0.00034
303.15 K, x2 = 0.6 | 1.37903 ± 0.00034
303.15 K, x2 = 0.65 | 1.37841 ± 0.00034
303.15 K, x2 = 0.6999 | 1.37775 ± 0.00034
303.15 K, x2 = 0.7499 | 1.37704 ± 0.00034
303.15 K, x2 = 0.8001 | 1.37633 ± 0.00033
303.15 K, x2 = 0.85 | 1.37553 ± 0.00033
303.15 K, x2 = 0.8998 | 1.37469 ± 0.00033
303.15 K, x2 = 0.9499 | 1.3738 ± 0.00033
313.15 K, x2 = 0 | 1.38143 ± 0.00037
313.15 K, x2 = 0.05 | 1.38065 ± 0.00037
313.15 K, x2 = 0.1 | 1.37995 ± 0.00036
313.15 K, x2 = 0.1501 | 1.37929 ± 0.00036
313.15 K, x2 = 0.2 | 1.37868 ± 0.00036
313.15 K, x2 = 0.2499 | 1.37807 ± 0.00036
313.15 K, x2 = 0.2997 | 1.37748 ± 0.00035
313.15 K, x2 = 0.3499 | 1.37692 ± 0.00035
313.15 K, x2 = 0.4 | 1.37632 ± 0.00035
313.15 K, x2 = 0.4504 | 1.37573 ± 0.00035
313.15 K, x2 = 0.5001 | 1.37513 ± 0.00035
313.15 K, x2 = 0.55 | 1.37457 ± 0.00034
313.15 K, x2 = 0.5999 | 1.37399 ± 0.00034
313.15 K, x2 = 0.65 | 1.37339 ± 0.00034
313.15 K, x2 = 0.7001 | 1.3728 ± 0.00034
313.15 K, x2 = 0.7502 | 1.37216 ± 0.00034
313.15 K, x2 = 0.7999 | 1.37151 ± 0.00033
313.15 K, x2 = 0.85 | 1.37081 ± 0.00033
313.15 K, x2 = 0.8998 | 1.37005 ± 0.00033
313.15 K, x2 = 0.9498 | 1.36931 ± 0.00033
323.15 K, x2 = 0 | 1.37627 ± 0.00037
323.15 K, x2 = 0.05 | 1.3752 ± 0.00037
323.15 K, x2 = 0.1 | 1.37442 ± 0.00036
323.15 K, x2 = 0.1501 | 1.37378 ± 0.00036
323.15 K, x2 = 0.2 | 1.37312 ± 0.00036
323.15 K, x2 = 0.2499 | 1.37252 ± 0.00036
323.15 K, x2 = 0.2997 | 1.37192 ± 0.00036
323.15 K, x2 = 0.3499 | 1.37127 ± 0.00035
323.15 K, x2 = 0.4 | 1.37072 ± 0.00035
323.15 K, x2 = 0.4504 | 1.37012 ± 0.00035
323.15 K, x2 = 0.5001 | 1.3695 ± 0.00035
323.15 K, x2 = 0.5501 | 1.36901 ± 0.00034
323.15 K, x2 = 0.6 | 1.36843 ± 0.00034
323.15 K, x2 = 0.65 | 1.36789 ± 0.00034
323.15 K, x2 = 0.6999 | 1.36729 ± 0.00034
323.15 K, x2 = 0.7502 | 1.36664 ± 0.00034
323.15 K, x2 = 0.8002 | 1.36608 ± 0.00033
323.15 K, x2 = 0.8501 | 1.36542 ± 0.00033
323.15 K, x2 = 0.8998 | 1.36485 ± 0.00033
323.15 K, x2 = 0.9501 | 1.3642 ± 0.00033
